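Exposure lasted 48 hours, with cells grown in 96-well plates and compounds tested at five concentrations. GI50 marks 50% less growth. Definition used: TGI = concentration required for complete inhibition of growth.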
Experiments:
Test in all cases: NCI tumour cell line growth inhibition, 48 h
HL-60(TB) leukemia = system: HL-60(TB) leukemia
NCI-H460 lung = system: NCI-H460 lung
T-47D breast = system: T-47D breast
786-0 renal = system: 786-0 renal
ACHN renal = system: ACHN renal
SK-MEL-5 melanoma = system: SK-MEL-5 melanoma
HS 578T breast = system: HS 578T breast
SK-MEL-28 melanoma = system: SK-MEL-28 melanoma
NCI-H226 lung = system: NCI-H226 lung
MDA-MB-468 breast = system: MDA-MB-468 breast
CAKI-1 renal = system: CAKI-1 renal
A549 NSCLC = system: A549 NSCLC
UACC-62 melanoma = system: UACC-62 melanoma
RXF 393 renal = system: RXF 393 renal
SR leukemia = system: SR leukemia
K-562 leukemia = system: K-562 leukemia
OVCAR-8 ovarian = system: OVCAR-8 ovarian
SN12C renal = system: SN12C renal
TK-10 renal = system: TK-10 renal
UO-31 renal = system: UO-31 renal
M14 melanoma = system: M14 melanoma
HOP-92 NSCLC = system: HOP-92 NSCLC
HT29 colon = system: HT29 colon
SNB-75 CNS = system: SNB-75 CNS
PC-3 prostate = system: PC-3 prostate
UACC-257 melanoma = system: UACC-257 melanoma
IGROV1 ovarian = system: IGROV1 ovarian
NCI/ADR-RES ovarian = system: NCI/ADR-RES ovarian
HCT-15 colon = system: HCT-15 colon
MDA-MB-435 = system: MDA-MB-435

CC12CCC3(CCC(=O)NCCCNc4ccnc5cc(Cl)ccc45)[C@@](C)(OO[C@]3(C)O1)O2
TGI (HL-60(TB) leukemia): 11.7 µM | GI50 (NCI-H460 lung): 2.49 µM | TGI (NCI-H460 lung): 11.4 µM | GI50 (T-47D breast): 5.99 µM | TGI (T-47D breast): > 25.5 µM | GI50 (786-0 renal): 1.79 µM | TGI (786-0 renal): 8.62 µM | GI50 (ACHN renal): 1.16 µM | TGI (ACHN renal): 6.73 µM | GI50 (SK-MEL-5 melanoma): 4.36 µM | TGI (SK-MEL-5 melanoma): 17.2 µM | GI50 (HS 578T breast): 3 µM | TGI (HS 578T breast): 14.1 µM | GI50 (SK-MEL-28 melanoma): 8.78 µM | TGI (SK-MEL-28 melanoma): > 25.5 µM | GI50 (NCI-H226 lung): 1.72 µM | TGI (NCI-H226 lung): 15 µM | GI50 (MDA-MB-468 breast): 4.05 µM | TGI (MDA-MB-468 breast): 9.17 µM | GI50 (CAKI-1 renal): 0.951 µM | TGI (CAKI-1 renal): 4.75 µM | GI50 (A549 NSCLC): 2.99 µM | TGI (A549 NSCLC): > 25.5 µM | GI50 (UACC-62 melanoma): 5.58 µM | TGI (UACC-62 melanoma): > 25.5 µM | GI50 (RXF 393 renal): 0.646 µM | TGI (RXF 393 renal): 2.74 µM | GI50 (SR leukemia): 3.66 µM | TGI (SR leukemia): 16.3 µM | GI50 (K-562 leukemia): 5.55 µM | TGI (K-562 leukemia): > 25.5 µM | GI50 (OVCAR-8 ovarian): 4.92 µM | TGI (OVCAR-8 ovarian): 12.7 µM | GI50 (SN12C renal): 2.14 µM | TGI (SN12C renal): 12.2 µM | GI50 (TK-10 renal): 1.23 µM | TGI (TK-10 renal): 11.3 µM | GI50 (UO-31 renal): 1.43 µM | TGI (UO-31 renal): 6.78 µM | GI50 (M14 melanoma): 4.36 µM | TGI (M14 melanoma): 17.4 µM | GI50 (HOP-92 NSCLC): 1.47 µM | TGI (HOP-92 NSCLC): 12 µM | GI50 (HT29 colon): 6.19 µM | TGI (HT29 colon): 23.3 µM | GI50 (SNB-75 CNS): 0.618 µM | TGI (SNB-75 CNS): 3.77 µM | GI50 (PC-3 prostate): 6.72 µM | TGI (PC-3 prostate): > 25.5 µM | GI50 (UACC-257 melanoma): 8.99 µM | TGI (UACC-257 melanoma): > 25.5 µM | GI50 (IGROV1 ovarian): 2.8 µM | TGI (IGROV1 ovarian): 8.22 µM | GI50 (NCI/ADR-RES ovarian): 5.84 µM | TGI (NCI/ADR-RES ovarian): 19.4 µM | GI50 (HCT-15 colon): 7.9 µM | TGI (HCT-15 colon): > 25.5 µM | GI50 (MDA-MB-435): 4.89 µM | TGI (MDA-MB-435): > 25.5 µM

Reference: PubChem BioAssay (NCI)
